Values after ≈ are worked out from the molar mass of the structure shown.
Experiments:
[1] = system: MRSA; assay: Resensitization to antibiotics (log reduction, TABLE 29); format: cell-based, S. aureus
Procedure: (§1) In a 96-well microtiter plate, two-fold dilutions were made of each drug (starting with 100 μM) in 100 μL of a cell suspension in TSB. The resulting samples were incubated overnight at 37° C. on a rotary shaking incubator at 100 rpm. The samples were then visually inspected for turbidity. A 20% well volume of MTT reagent (5 mg/mL) was subsequently added, and the samples were incubated for about 20 minutes.

[2] = system: CRE; assay: as above; format: cell-based
Procedure: as §1

[3] = system: A. baumannii (ATCC 15151); assay: MIC against A. baumannii; format: cell-based; details: Acinetobacter baumannii, ATCC15151
Procedure: TABLE 28 details the individual MIC values of compounds 1, 7, 8, 9, 10, 11, PMB, PME, and light against A. baumannii.
(§2) The MICs of PME and compounds 8-11 were determined against A. baumannii (ATCC 15151). […] After incubating the cells with PME, a compound (5 μM) was added, and the samples were further incubated at 37° C. At specific time points, samples were taken and diluted ten-fold in media. Ten microliters of each dilution was then drip-streaked onto an agar plate and incubated overnight at 37° C. Colony counts were then performed, and the CFU/mL were calculated.

[4] = system: drug-resistant bacteria; assay: Summary of synergistic activities with antibiotic families (TABLE 45); format: cell-based; details: for Synergy with Oxacillin (β-lactama): *indicated ampicillin, dicloxicillin and Penicillin G
Source text: TABLE 45 summarizes the synergistic activities of the seven classes of clinically used antibiotics and compounds of the invention against a variety of different drug-resistant bacteria.

[5] = system: A. baumannii; assay: Resensitization to antibiotics (log reduction, TABLE 29); format: cell-based
[6] = system: S. aureus (ATCC 29213); assay: MIC against drug sensitive S. aureus; format: cell-based; details: Staphylococcus aureus, ATCC29213; ATCC 29213; read-out: S. aureus MIC
[7] = system: P. aeruginosa; assay: Cell killing with compounds and PME at fixed concentrations, with and without white light; format: cell-based; details: for Co-treatment with PME: log reduction in the CFU/mL compared to PME alone: 20 μM compound and 0.1 μg/mL PME
Procedure: FIG. 26 is an example of the treatment of P. aeruginosa with compound 1 and PME at fixed concentrations.
P. aeruginosa cells were also treated with white light upon being incubated with compound 1 for different durations of time. In a 12×75 mm borosilicate glass culture tube, 1 mL of cell suspension was added. PME was added to the cells, and the samples were mixed using a vortex mixer. The resulting samples were incubated for 1.5 hours at 37° C. on a rotary shaking incubator at 100 rpm. Compound 1 was then added, and the samples were incubated for 30 minutes at 37° C. on a rotary shaking incubator at 100 rpm. The samples were then irradiated with white light using a Lumacare™ LC-122 for 2 minutes (irradiation λ1) and incubated overnight at 37° C. The samples were irradiated again with white light using a Lumacare™ LC-122 for 2 minutes (irradiation λ2). Ten-fold dilutions were made of each sample, and 10 μL of each dilution was drip-streaked onto an agar plate. The samples were incubated overnight at 37° C., and colony counts were performed to calculate CFU/mL.
FIG. 55 is an illustrative example of the treatment of P. aeruginosa with compound 1, PME, co-treatment with compound 1 and PME, and co-treatment with compound 1, PME, and light (λ1 and λ2) at fixed concentrations.

[8] = system: MRSA; assay: Resensitization to antibiotics (log reduction, TABLE 29); format: cell-based, S. aureus; remark: listed apart in the source
[9] = system: Klebsiella pneumoniae (CRE, ATCC BAA-1705); assay: Cell killing of CRE with compounds in presence or absence of PMB (CFU/mL); format: cell-based; details: for PMB + Comp: PMB @ 0.2 μg/mL + Comp @ 20 µM; for Comp @ 20 µM: compound alone
Procedure: Klebsiella pneumoniae (CRE, ATCC BAA-1705) was grown in TSB overnight at 37° C. and diluted to about 5×10^5 CFU/mL using a McFarland Latex Turbidity standard (0.5). One mL of the cell suspension was transferred to a glass culture test tube. PMB was added to the cell suspension resulting in a final concentration of 200 μg/mL of PMB. The cell suspension was incubated at 37° C. on a rotary shaking incubator at 150 rpm for 4 hours. Compounds 1, 7, 8, 9, 10, and 11 were added to the cell suspension, resulting in a concentration of 20 μM for each of the compounds. The cell suspensions containing the compounds were incubated at 37° C. on a rotary shaking incubator at 150 rpm for 4 hours. Each sample was diluted tenfold to a 10^−5 dilution. Ten 10 microliters of each dilution from each sample was dripped onto a TSA plate and allowed to streak down the plate. The agar plates were incubated at 37° C. for 18-24 hours. Colony counts were performed and CFU/mL values were calculated.
The MICs of PMB and compounds 7-11 were determined against Klebsiella pneumoniae (CRE, ATCC BAA-1705). […] After the incubation with PMB, each of the compounds was added at a concentration of 20 μM, and the samples were incubated for an additional 18 hours. A sample was taken and diluted ten-fold in media. Ten microliters of each dilution was then drip-streaked onto an agar plate and incubated overnight at 37° C. Colony counts were then performed and the concentrations of cells (CFU/mL) were calculated.

[10] = system: A. baumannii (ATCC 15151); assay: Time course of colony counts with compounds and PME or PMB; format: cell-based
Procedure: as §2

[11] = system: WI38 cells; assay: Toxicity (IC50) on WI38 cells; format: cell-based; details: Homo sapiens, WI-38; normal lung fibroblast WI38 cells
Procedure: The toxicities of the compounds of the invention were determined for human cancerous cervical epithelium HeLa and normal lung fibroblast WI38 cells. The toxicities of EPIs INF-55 and INF-55Cl were quantified as controls. […] TABLE 2 compares the toxicity of compounds 7-11 on HeLa cells and normal WI38 cells.

[12] = compound 20 μM, PMB (0.2 μg/mL)
[13] = compound 20 μM, PME (0.2 μg/mL)

Row | SMILES | MIC [3] [µM] | Log Reduction ([5]; compound 5 μM, PME (0.2 μg/mL)) | MIC [6] [µM] | Co-treatment with PME: log reduction in the CFU/mL compared to PME alone [7] | PMB + Comp [9] | Comp @ 20 µM [9] | Log Reduction [2, 13] | Synergy with Polymyxin B (Polypeptides) ([4]; A. baumannii ATCC 15151) | Synergy with Polymyxin E (Polypeptides) ([4]; A. baumannii ATCC 15151) | Synergy with Polymyxin B (Polypeptides) ([4]; CRE ATCC 1705) | Synergy with Polymyxin E (Polypeptides) ([4]; CRE ATCC 1705) | Synergy with Polymyxin B (Polypeptides) ([4]; CRE ATCC 2340) | Synergy with Polymyxin E (Polypeptides) ([4]; CRE ATCC 2340) | Synergy with Polymyxin B (Polypeptides) ([4]; CRE ATCC 2341) | Synergy with Polymyxin E (Polypeptides) ([4]; CRE ATCC 2341) | Synergy with Polymyxin B (Polypeptides) ([4]; CRE ATCC 2342) | Synergy with Polymyxin E (Polypeptides) ([4]; CRE ATCC 2342) | Synergy with Norfioxacin (Fluoroquinolones) ([4]; MRSA ATCC BAA-44) | Synergy with Oxacillin (β-lactama) ([4]; MRSA ATCC BAA-44) | Synergy with Polymyxin B (Polypeptides) ([4]; P. aeruginosa ATCC 27853) | also measured
1 | Clc1ccc(/C=C/c2[nH]c3ccccc3c2/C=C/c2ccc(Cl)cc2)cc1 [Compound 1] | > 100 | 8 | 100 (≈ 39 µg/mL) | 2-log reduction | 8.2 × 10^3 CFU/mL | 6.4 × 10^8 CFU/mL |  |  |  |  |  |  |  |  |  |  |  |  |  |  | Log Reduction ([1]; compound 1 μM, MRSA ATCC BAA-1717, Light (2 min)): 6; Log Reduction ([1]; compound 10 μM, Norfloxacin (20 μg/mL)): 9; Log Reduction ([1]; compound 10 μM, Oxacillin (100 μg/mL)): 7-8; Log Reduction ([1]; compound 10 μM, Tetracycline (0.1 μg/mL)): 5-6; Log Reduction ([1]; compound 10 μM, Tobramycin (100 μg/mL)): 9; Log Reduction ([2]; compound 5 μM, PMB (0.2 μg/mL) + Light (2 min)): 3; Log Reduction ([2]; compound 10 μM, PME (0.1 μg/mL)): 9; Log Reduction ([2]; compound 10 μM, PME (0.2 μg/mL) + Light (2 min)): 9; Synergy with Erythromycin (Macrolides) ([4]; MRSA ATCC BAA-44): Synergy (1); Synergy with Tetracycline (Tetracyclines) ([4]; MRSA ATCC BAA-44, †includes doxycycline): Synergy† (1); Log Reduction ([5]; compound 5 μM, PMB (0.5 μg/mL)): 8; Co-treatment with PME: log reduction in the CFU/mL compared to PME alone ([7]; listed as compound 1): ~2 log reduction; reduction in the CFU/mL compared to co-treatment with compound 1 and PME ([7]; additional irradiation after an overnight incubation (λ2), FIG. 55): negligible reduction; log reduction in the CFU/mL compared to co-treatment with compound 1 and PME ([7]; light immediately after a 30 minute incubation with compound 1 (λ1), FIG. 55): ~8 log; PDT ([7]; with white light, TABLE 19): ~7-log reduction; Log Reduction ([8]; compound 1 μM, MRSA ATCC BAA-44, Light (2 min)): 8; Log Reduction ([8]; compound 10 μM, Dicloxacillin (1 μg/mL)): 8; Log Reduction ([8]; compound 10 μM, Doxycycline (0.1 μg/mL)): 4; Log Reduction ([8]; compound 10 μM, Vancomycin (0.5 μg/mL)): 9
2 | Brc1ccc(/N=N/c2c[nH]c3ccccc23)cc1 [Compound 8] | > 100 |  | 8 (≈ 2.4 µg/mL) | 4-log reduction | None Detected | 6.6 × 10^8 CFU/mL | 6 | Synergy | Synergy | Synergy | Synergy | Synergy | Synergy | Synergy | Synergy | Synergy | Synergy | Synergy | Synergy* | Synergy | Log Reduction [2, 12]: 6; A. baumannii colony populations on treatment with compound and PME or PMB ([10]; FIG. 51): reduced to sterility; Synergy with Polymyxin E (Polypeptides) ([4]; P. aeruginosa ATCC 27853): Synergy; Synergy with Norfioxacin (Fluoroquinolones) ([4]; VRE ATCC 51299): Synergy; Synergy with Tetracycline (Tetracyclines) ([4]; VRE ATCC 51299): Synergy; Synergy with Vancomycin (Glycopeptides) ([4]; VRE ATCC 51299): Synergy; Log Reduction ([5]; compound 5 μM, PME (0.05 μg/mL)): 9; Log Reduction [5, 12]: 9; Co-treatment with PME: log reduction in the CFU/mL compared to PME alone ([7]; listed as compound 8): ~4 log reduction; IC50 [11]: 11.7 µM; Log Reduction ([8]; compound 5 μM, Norfloxacin (25 μg/mL)): 2-3; Log Reduction ([8]; compound 5 μM, Oxacillin (50 μg/mL)): 3-4
3 | Clc1ccc(Oc2c(-c3ccc(Cl)cc3)[nH]c3ccc(Cl)cc23)cc1 [Compound 11] | > 100 | 8 | 32 to 64 (≈ 12.4 to 24.9 µg/mL) | 2-log reduction | None Detected | 7.8 × 10^8 CFU/mL | 6 | Synergy | Synergy | Synergy | Synergy | Synergy | Synergy | Synergy | Synergy | Synergy | Synergy | Synergy | Synergy* | Synergy | A. baumannii colony populations on treatment with compound and PME ([10]; 0.2 μg/mL of PME, compound 5 μM, FIGS. 50, 52): reduced to sterility; Synergy with Polymyxin E (Polypeptides) ([4]; P. aeruginosa ATCC 27853): Synergy; Synergy with Norfioxacin (Fluoroquinolones) ([4]; VRE ATCC 51299): Synergy; Synergy with Tetracycline (Tetracyclines) ([4]; VRE ATCC 51299): Synergy; Synergy with Vancomycin (Glycopeptides) ([4]; VRE ATCC 51299): Synergy; Co-treatment with PME: log reduction in the CFU/mL compared to PME alone ([7]; listed as compound 11): about 2 log reduction; IC50 [11]: 9.62 µM; Log Reduction ([8]; compound 0.5 μM, Norfloxacin (20 μg/mL)): 8; Log Reduction ([8]; compound 0.5 μM, Oxacillin (100 μg/mL)): 5
